For orientation: EC50 means the concentration that produces a half-maximal response. Usually solubility stands for how much of the substance goes into solution per volume. High values mean a readily soluble substance, low ones a poorly soluble substance.

The record followed here is patent US8815857B2 (Boehringer Ingelheim International GmbH, priority 2011, dated 2014).

Values after ≈ are worked out from the molar mass of the structure shown.

Data set [1] has as its target T1, Recombinant human soluble guanylate cyclase (sGC), alpha 1 / beta 1 subunits, heme-free (Homo sapiens, UniProt Q02108+Q02153).
T1 construct: histidine tag (C); made in house; host or cells: Sf9 insect cells (baculovirus coinfection)
T1 sequence (Q02108 1-690 partner): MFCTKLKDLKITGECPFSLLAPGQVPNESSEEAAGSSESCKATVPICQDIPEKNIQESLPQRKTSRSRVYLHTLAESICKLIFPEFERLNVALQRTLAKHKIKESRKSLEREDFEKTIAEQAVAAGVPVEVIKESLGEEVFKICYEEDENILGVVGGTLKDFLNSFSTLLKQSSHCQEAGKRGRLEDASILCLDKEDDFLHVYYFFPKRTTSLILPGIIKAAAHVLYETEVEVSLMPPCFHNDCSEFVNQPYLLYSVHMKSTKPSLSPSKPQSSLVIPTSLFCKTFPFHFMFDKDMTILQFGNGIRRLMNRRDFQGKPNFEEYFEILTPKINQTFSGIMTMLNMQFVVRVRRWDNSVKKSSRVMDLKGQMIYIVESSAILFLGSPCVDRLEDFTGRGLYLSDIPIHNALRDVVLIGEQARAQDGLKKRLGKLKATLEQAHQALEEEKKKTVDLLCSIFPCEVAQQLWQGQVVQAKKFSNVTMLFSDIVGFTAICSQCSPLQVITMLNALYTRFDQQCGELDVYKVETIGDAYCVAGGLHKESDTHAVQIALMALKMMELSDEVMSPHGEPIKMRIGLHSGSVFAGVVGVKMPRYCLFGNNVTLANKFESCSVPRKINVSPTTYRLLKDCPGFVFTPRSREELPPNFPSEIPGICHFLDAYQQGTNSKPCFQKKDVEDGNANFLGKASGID
T1 sequence (Q02153 1-619): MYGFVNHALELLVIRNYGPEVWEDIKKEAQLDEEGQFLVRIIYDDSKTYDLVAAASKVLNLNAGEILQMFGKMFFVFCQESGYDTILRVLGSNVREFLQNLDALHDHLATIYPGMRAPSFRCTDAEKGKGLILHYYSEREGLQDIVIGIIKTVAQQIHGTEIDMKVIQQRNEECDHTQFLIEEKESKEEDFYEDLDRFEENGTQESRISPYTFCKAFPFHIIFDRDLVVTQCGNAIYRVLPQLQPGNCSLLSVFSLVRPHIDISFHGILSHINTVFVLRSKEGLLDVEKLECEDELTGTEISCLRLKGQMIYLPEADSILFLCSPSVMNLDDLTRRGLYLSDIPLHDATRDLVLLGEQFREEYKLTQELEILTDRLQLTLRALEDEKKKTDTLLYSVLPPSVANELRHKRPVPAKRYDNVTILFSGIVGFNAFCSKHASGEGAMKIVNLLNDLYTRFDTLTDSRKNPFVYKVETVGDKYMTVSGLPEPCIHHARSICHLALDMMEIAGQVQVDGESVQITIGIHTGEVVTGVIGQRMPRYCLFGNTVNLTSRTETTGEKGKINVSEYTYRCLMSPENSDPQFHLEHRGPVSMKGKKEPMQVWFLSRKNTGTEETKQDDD
Briefly: Molecular assay: cGMP formation by heme-free recombinant sGC (CisBio cGMP detection kit). It counts as biochemical. Conditions: 300 pM heme-free sGC, 37° C., 60 min, cGMP readout; read-out: EC50 nM, Activity of Compounds in Molecular Assay. The method, then:
Recombinant human soluble guanylate cyclase (sGC) is purified from Sf9 insect cells coinfected with baculoviruses expressing the alpha 1 or beta 1 subunit of sGC, both with a C-terminal histidine tag. Heme-free sGC is prepared by treating cell lysate with a final concentration of 0.5% Tween 20 prior to purification on a nickel affinity column.
sGC catalyzes the conversion of guanosine-5′-triphosphate (GTP) to cyclic guanosine monophosphate (cGMP). The activity of sGC is measured in vitro using the commercially available CisBio cGMP detection kit (catalog # 62GM2PEB) in a 384 well format. In brief, 300 pM heme-free sGC is incubated in reaction buffer (50 mM MOPS pH 6.8, 0.2 N KOH, 50 mM NaCl, 2 mM MgCl2, 0.1% BSA, 1.25 mM IBMX, 0.25 mM TCEP, 50 nM GTP) in the presence or absence of dilutions of test compounds diluted in DMSO (final concentration of 1%) in a volume of 10 microL at 37° C. for 60 min. Undiluted reaction products or an 80-fold dilution of reaction products (10 microL of either) prepared in reaction buffer containing 0.2 mM TCEP and 10 mM EDTA is mixed with 5 microL of d2-cGMP plus 5 microL of Eu^3+ cryptate-labeled anti-cGMP, each diluted in buffer containing 0.1 M KPO4 pH 7.5, 0.4 M KF, 20 mM EDTA, 0.2% BSA. After a one h incubation at room temperature in the dark, the mixtures are quantified on an EnVision plate reader (PerkinElmer) according to manufacturer instructions (laser excitation 337 nm, emission 620 and 665 nm). The ratio at each compound concentration is converted to nM cGMP using the linear portion of a calibration curve. Log compound concentration is plotted against combined undiluted and diluted nM cGMP values to determine the EC50 for each curve.

Data set [2] in a line: Assessment of solubility: HT solubility in pION buffer, UV spectrophotometry. The following applies: 16-19 h incubation, 1.0% DMSO; for solubility: pION system solution buffer, kinetic from dmso stock.
Where [3] appears, read: pH 4.5, pH 4.5, aqueous buffer, Solubility (pH 4.5), pH 4.5 buffer.
The mark [4] stands for this setting: pH 7.4, pH 7.4, aqueous buffer, Solubility (pH 7.4), pH 7.4 buffer.

For the molecule `Cc1ccc(OCc2ccc(CN3CCOCC3)cc2C#N)c(-c2csc(N3CC[C@@H](C(=O)O)[C@@H](C)C3)n2)c1` (relative stereo) [Compound 69, cis-1-[4-[2-[[2-cyano-4-(morpholinomethyl)phenyl]methoxy]-5-methyl-phenyl]thiazol-2-yl]-3-methyl-piperidine-4-carboxylic acid], the concentration giving a half-maximal response (EC50) in data set [1] was determined as 72 nM. Moreover, the solubility in data set [2] (setting [3]) and in data set [2] (setting [4]) was above 65 µg/mL throughout.
On to `Cc1ccc(OCc2ccc(CN3CCOCC3)cc2C)c(-c2csc(N3CC[C@@H](C(=O)O)C3)n2)c1` (single isomer, unassigned) [Compound 5, R-1-{4-[5-methyl-2-(2-methyl-4-morpholin-4-ylmethyl-benzyloxy)-phenyl]-thiazol-2-yl}-pyrrolidine-3-carboxylic acid], for which the EC50 in data set [1] is 2000 nM. Besides, the solubility was determined as 37 µg/mL (≈ 72.9 µM) in data set [2] (setting [3]) and 40 µg/mL (≈ 78.8 µM) in data set [2] (setting [4]).
On the same counts, the results for `Cc1ccc(OCc2ccc(CN3CCOCC3)cc2C)c(-c2csc(N3CC[C@@H](C(=O)O)[C@@H](C)C3)n2)c1` (single isomer, unassigned) [Compound 50] are 520 nM, 18 µg/mL (≈ 33.6 µM) and above 53 µg/mL.
In the same order, the values of `Cc1cc(C(=O)N2CCCCC2)ccc1COc1ccc(F)cc1-c1csc(N2CCC(C(=O)O)C(C)C2)n1` (stereo not drawn) [Compound 1] are 60 nM, 0.85 µg/mL (≈ 1.54 µM) and above 100 µg/mL.
Consider `Cc1cc(CN2CCOCC2)ccc1COc1ccccc1-c1csc(N2CCC(C(=O)O)C(C)C2)n1` (stereo not drawn) [Compound 2], for which, in data set [1], the EC50 turned out to be 320 nM. Moreover, the “Solubility (pH 4.5)” value in data set [2] (pH 4.5 buffer) is listed as above 71 μg/mL. The “Solubility (pH 7.4)” value in data set [2] (pH 7.4 buffer) is listed as above 71 μg/mL.
As for `Cc1ccc(OCc2ccc(CN3CCOCC3)cc2C)c(-c2csc(NCCC(=O)O)n2)c1` [Compound 3], the EC50 in data set [1] was determined as 1300 nM. For the same molecule, the solubility in data set [2] (setting [3]) and in data set [2] (setting [4]) was above 52 µg/mL throughout.
Turning to `Cc1ccc(OCc2ccc(CN3CCOCC3)cc2C)c(-c2csc(NCCCC(=O)O)n2)c1` [Compound 4], the EC50 in data set [1] was determined as 760 nM. The solubility in data set [2] (setting [3]) and in data set [2] (setting [4]) was above 54 µg/mL in each case.
Take `Cc1ccc(OCc2ccc(CN3CCOCC3)cc2C)c(-c2csc(N3CCC(C(=O)O)C3)n2)c1` (stereo not drawn) [Compound 6]: the concentration giving a half-maximal response (EC50) in data set [1] is 610 nM. Also, the solubility in data set [2] (setting [3]) and in data set [2] (setting [4]) was above 62 µg/mL each time.
`Cc1cc(C(=O)N2CCCCC2)ccc1COc1ccccc1-c1csc(C2=CCC(C(=O)O)CC2)n1` (stereo not drawn) [Compound 8]: in data set [1], the EC50 was found to be 330 nM. Moreover, the solubility in data set [2] (setting [3]) is 0.15 µg/mL (≈ 0.29 µM); in data set [2] (setting [4]), above 51 µg/mL.
On the same counts, the results for `Cc1cc(C(=O)N2CCCCC2)ccc1COc1ccccc1-c1csc(N2CC3C(C2)C3C(=O)O)n1` (stereo not drawn) [Compound 9] are 680 nM, 5.6 µg/mL (≈ 10.8 µM) and above 51 µg/mL.
On the same counts, the results for `Cc1ccc(OCc2ccc(CN3CCOCC3)cc2C)c(-c2csc(C3=CCC(C(=O)O)CC3)n2)c1` (stereo not drawn) [Compound 10] are 4900 nM, 14 µg/mL (≈ 27 µM) and 22 µg/mL (≈ 42.4 µM).
As to `Cc1cc(C(=O)N2CCCCC2)ccc1COc1ccccc1-c1csc([C@H]2CC[C@@H](C(=O)O)CC2)n1` [Compound 11], the EC50 in data set [1] was 2300 nM. Besides, the “Solubility (pH 4.5)” value in data set [2] (pH 4.5 buffer) is reported as 0.1 μg/mL. This molecule also yielded a solubility in data set [2] (setting [4]) above 51 µg/mL.
On to `Cc1cc(C(=O)N2CCCCC2)ccc1COc1ccccc1-c1csc([C@H]2CC[C@H](C(=O)O)CC2)n1` [Compound 12], for which, in data set [1], the concentration giving a half-maximal response (EC50) came out at 4000 nM. Also, the “Solubility (pH 4.5)” value in data set [2] (pH 4.5 buffer) came out at 0.1 μg/mL. In data set [2] (setting [4]), this molecule showed a solubility above 51 µg/mL.
Take `Cc1ccc(OCc2ccc(C(=O)N3CCCC3)cc2C)c(-c2csc(N3CCC(C(=O)O)CC3)n2)c1` [Compound 13]: in data set [1], the concentration for a half-maximal effect (EC50) was found to be 120 nM. In addition, the “Solubility (pH 4.5)” value in data set [2] (pH 4.5 buffer) turned out to be 17 μg/mL. Also, in data set [2] (pH 7.4 buffer), the “Solubility (pH 7.4)” value was above 51 μg/mL.
`Cc1ccc(OCc2ccc(CN3CCOCC3)cc2C)c(-c2csc(N3CC4C(C3)C4C(=O)O)n2)c1` (stereo not drawn) [Compound 14]: the EC50 in data set [1] was found to be 4700 nM. Further, the solubility in data set [2] (setting [3]) and in data set [2] (setting [4]) was above 63 µg/mL in each case.
For `Cc1cc(C(=O)N2CCCC2)ccc1COc1c(C)cccc1-c1csc(N2CCC(C(=O)O)CC2)n1` [Compound 15], the EC50 in data set [1] amounted to 190 nM. For the same molecule, the solubility in data set [2] (setting [3]) is 13 µg/mL (≈ 25 µM); in data set [2] (setting [4]) it was above 51 µg/mL.
For the molecule `Cc1cc(C(=O)N2CCCCC2)ccc1COc1ccccc1-c1csc(N2CCC(C(=O)O)CC2)n1` [Compound 17], the half-maximal effective concentration (EC50) in data set [1] is 79 nM. Moreover, the solubility in data set [2] (setting [3]) is 0.7 µg/mL (≈ 1.35 µM); in data set [2] (setting [4]), above 51 µg/mL.
In the same order, the values of `Cc1ccc(OCc2ccc(CN3CCOCC3)cc2C)c(-c2csc(N3CCC(C(=O)O)CC3)n2)c1` [Compound 20, 1-{4-[5-methyl-2-(2-methyl-4-morpholin-4-ylmethyl-benzyloxy)-phenyl]-thiazol-2-yl}-piperidine-4-carboxylic acid] are 140 nM, 33 µg/mL (≈ 63.3 µM) and 36 µg/mL (≈ 69 µM).
On the same counts, the results for `Cc1cc(CN2CCOCC2)ccc1COc1c(C)cccc1-c1csc(N2CCC(C(=O)O)CC2)n1` [Compound 21] are 70 nM, above 52 µg/mL and above 52 µg/mL.
Consider `Cc1ccc(OCc2ccc(CN3CCOCC3)cc2C)c(-c2csc(N3CCCC(C(=O)O)C3)n2)c1` (stereo not drawn) [Compound 22], for which, in data set [1], the EC50 came to 1600 nM. Further, the solubility in data set [2] (setting [3]) and in data set [2] (setting [4]) was above 63 µg/mL in each case.
Turning to `Cc1ccc(OCc2ccc(CN3CCOCC3)cc2C)c(-c2csc(N3CCC(CC(=O)O)C3)n2)c1` (stereo not drawn) [Compound 23], the EC50 in data set [1] was found to be 3200 nM. Besides, the solubility in data set [2] (setting [3]) and in data set [2] (setting [4]) was above 56 µg/mL throughout.
As for `Cc1cc(CN2CCOCC2)ccc1COc1ccccc1-c1csc(N2CCC(C(=O)O)C(C)C2)n1` (stereo not drawn) [Compound 24], the 50% effective concentration (EC50) in data set [1] was 510 nM. Also, the solubility in data set [2] (setting [3]) and in data set [2] (setting [4]) was above 59 µg/mL each time.
On to `CCC(=O)N1CCN(Cc2ccc(COc3ccc(C)cc3-c3csc(N4CCC(C(=O)O)CC4)n3)c(C)c2)CC1` [Compound 194], for which the EC50 in data set [1] is 150 nM.
Same read-out and setting: in the case of `Cc1ccc(OCc2ccc(CN3CCN(C(=O)C(C)(C)C)CC3)cc2C)c(-c2csc(N3CCC(C(=O)O)CC3)n2)c1` [Compound 195] it was 83 nM; in that of `Cc1ccc(OCc2ccc(C(=O)N(C)C)cc2C)c(-c2csc(N3CCC(C(=O)O)CC3)n2)c1` [Compound 294], 290 nM.
